Tests used:
[1] = system: TRPV2 triple mutants containing the F472S mutation; assay: Two-electrode voltage-clamp in Xenopus oocytes, TRPV2 triple mutants containing F472S; assay type: cell-based, rat; settings: 100 nM RTx, +60 mV, normalized to 4 mM 2-APB
Text: (§1) To further investigate the putative vanilloid binding pocket in TRPV1, we inspected the cryo-EM structure of TRPV1, looking for residues that are located nearby to the putative RTx density (Figure 1B; regions/residues highlighted in yellow) and that differ between TRPV1 and TRPV2 channels (Figure 3—figure supplement 1; regions highlighted in magenta). […] To quantify the contribution of each of these residues to TRPV1 channel activation by RTx under our experimental conditions, we mutated each to the corresponding residue in TRPV2. We then expressed each construct in oocytes and used the two electrode voltage-clamp technique to study activation by RTx and by the non-specific TRPV channel activator 2-APB. We recorded time courses for channel activation by each agonist while stepping the membrane potential from −60 to +60 mV every 3 s from a holding potential of 0 mV using an external recording solution containing 100 mM KCl (internal K^+ concentration in a healthy oocyte is 100 mM) (Figure 3A, left). We also recorded current-voltage (I-V) relations by stepping over a wider range of voltages in the absence and presence of activators, or in the presence of ruthenium red (RR), a non-specific inhibitor of TRP channels (Figure 3A, right). […]

[2] = target: T1, TRPV1 S512F (Rattus norvegicus, UniProt O35433, S512F); assay: Two-electrode voltage-clamp in Xenopus oocytes, TRPV1 S512F; assay type: cell-based; settings: 100 nM RTx
T1 construct: expressed in transfected cells; host or cells: Xenopus oocytes (cRNA injection)
T1 sequence (O35433 whole entry S512F): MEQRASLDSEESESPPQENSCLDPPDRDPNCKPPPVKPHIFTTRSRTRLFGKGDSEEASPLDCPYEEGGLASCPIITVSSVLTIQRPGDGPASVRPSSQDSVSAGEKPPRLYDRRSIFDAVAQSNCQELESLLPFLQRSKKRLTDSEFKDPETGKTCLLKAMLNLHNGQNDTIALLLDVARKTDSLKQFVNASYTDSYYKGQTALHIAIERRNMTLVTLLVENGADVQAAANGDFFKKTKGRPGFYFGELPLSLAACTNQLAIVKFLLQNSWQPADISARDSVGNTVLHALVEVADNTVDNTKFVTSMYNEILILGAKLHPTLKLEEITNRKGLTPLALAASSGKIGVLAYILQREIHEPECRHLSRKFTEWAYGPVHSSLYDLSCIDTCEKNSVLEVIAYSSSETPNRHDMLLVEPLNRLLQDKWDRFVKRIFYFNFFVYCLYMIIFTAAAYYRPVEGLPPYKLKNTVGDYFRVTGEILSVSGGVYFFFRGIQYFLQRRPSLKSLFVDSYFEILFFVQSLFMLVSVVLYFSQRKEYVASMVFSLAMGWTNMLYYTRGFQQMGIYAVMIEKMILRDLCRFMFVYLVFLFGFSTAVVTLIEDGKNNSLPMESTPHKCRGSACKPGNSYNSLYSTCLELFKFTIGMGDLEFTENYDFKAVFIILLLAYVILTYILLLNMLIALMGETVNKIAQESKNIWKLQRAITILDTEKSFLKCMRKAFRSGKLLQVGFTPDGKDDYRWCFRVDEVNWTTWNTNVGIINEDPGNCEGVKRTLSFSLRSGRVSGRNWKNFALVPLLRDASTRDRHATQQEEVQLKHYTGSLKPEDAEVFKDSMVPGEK
Text: as §1

C=C(C)[C@]12C[C@@H](C)[C@@]34O[C@](Cc5ccccc5)(O[C@@H]1[C@@H]3C=C(COC(=O)Cc1ccc(O)c(OC)c1)C[C@]1(O)C(=O)C(C)=C[C@@H]41)O2 [RTx, resiniferatoxin]
channel activation by RTx [1]: sensitive to RTx | dissociation of RTx after removal from the recording chamber [2]: could readily see dissociation of RTx
